Legend:
BxPC-3 = assay: Cell viability analysis, pancreatic cancer BxPC-3; assay type: cell-based, human; details: BxPC-3, repeated experiment
[1] = system: A375 (Amelanotic Melanoma); assay: Cell viability analysis, skin cancer A375; assay type: cell-based, human; details: A375, repeated experiment
[2] = system: MCF7 (Mammary Gland, Adenocarcinoma); assay: Cell viability analysis, breast cancer MCF7; assay type: cell-based, human; details: MCF-7, repeated experiment
[3] = system: HCT116 (p53+) (Colorectal Carcinoma)
T24 = assay: Cell viability analysis, bladder cancer T24; assay type: cell-based, human; details: T24, repeated experiment
[4] = system: Hep3B (hepatocellular carcinoma); assay: Cell viability analysis, hepatic cancer Hep3B; assay type: cell-based, human; details: Hep3B, repeated experiment
[5] = system: SAS (Tongue squamous cell carcinoma); assay: Cell viability analysis, tongue cancer SAS; assay type: cell-based, human; details: SAS, repeated experiment
TOV-21G = assay: Cell viability analysis, ovarian cancer TOV-21G; assay type: cell-based, human; details: TOV-21G, repeated experiment
[6] = system: MKN-45 (Gastric Adenocarcinoma); assay: Cell viability analysis, gastric cancer MKN-45; assay type: cell-based, human; details: MKN-45, repeated experiment
U-2OS = assay: Cell viability analysis, osteosarcoma U-2OS; assay type: cell-based, human; details: U2OS, repeated experiment
NIH: OVCAR-3 = assay: Cell viability analysis, ovarian cancer NIH: OVCAR-3; assay type: cell-based, human; details: NIH-OVCAR-3, repeated experiment
[7] = system: A549 (Lung Adenocarcinoma); assay: Cell viability analysis, lung cancer A549; assay type: cell-based, human; details: A549, repeated experiment
[8] = system: HeLa (Cervix Adenocarcinoma); assay: Cell viability analysis, cervical cancer HeLa; assay type: cell-based, human; details: HeLa, repeated experiment
[9] = system: TSGH-8301 (Urinary Bladder Carcinoma); assay: Cell viability analysis, bladder cancer TSGH-8301; assay type: cell-based, human; details: TSGH-8301, repeated experiment
AsPC-1 = assay: Cell viability analysis, pancreatic cancer AsPC-1; assay type: cell-based, human; details: AsPC-1, repeated experiment
[10] = system: HI650 (Lung Adenocarcinoma); assay: Cell viability analysis, lung cancer HI650; assay type: cell-based, human; details: H1650, repeated experiment
[11] = system: 786-O (Renal adenocarcinoma); assay: Cell viability analysis, renal cancer 786-O; assay type: cell-based, human; details: 786-O, repeated experiment
[12] = system: LoVo (Colorectal Adenocarcinoma); assay: Cell viability analysis, colon cancer LoVo; assay type: cell-based, human; details: LoVo, repeated experiment
[13] = system: PC3 (p53−) (Prostate Adenocarcinoma); assay: Cell viability analysis, prostate cancer PC3; assay type: cell-based, human; details: PC-3, repeated experiment
[14] = system: BCC (basal cell carcinoma); assay: Cell viability analysis, skin cancer BCC; assay type: cell-based, human; details: BCC, repeated experiment
[15] = system: C-33A (Cervical carcinoma); assay: Cell viability analysis, cervical cancer C-33A; assay type: cell-based, human; details: C-33A, repeated experiment
[16] = system: MDA-MB-231 (Mammary Gland, Adenocarcinoma); assay: Cell viability analysis, breast cancer MDA-MB-231; assay type: cell-based, human; details: MDA-MB231, repeated experiment
[17] = system: AGS (Gastric Adenocarcinoma); assay: Cell viability analysis, gastric cancer AGS; assay type: cell-based, human; details: AGS, repeated experiment
[18] = system: HepG2 (Hepatocellular Carcinoma); assay: Cell viability analysis, hepatic cancer HepG2; assay type: cell-based, human; details: HepG2, repeated experiment

CCCSc1ccc2[nH]c(NC(=O)OC)nc2c1 [Albendazole (Albenza)]
The results of antibiotic drug inhibiting cancer cell lines (cell viability analysis), BxPC-3 (BxPC-3): 36.62 | The results of antibiotic drug inhibiting cancer cell lines (cell viability analysis), A375 [1]: 36.21 | The results of antibiotic drug inhibiting cancer cell lines (cell viability analysis), MCF-7 [2]: 69.83 | viability [3]: 20.9% | The results of antibiotic drug inhibiting cancer cell lines (cell viability analysis), T24 (T24): 37.98 | The results of antibiotic drug inhibiting cancer cell lines (cell viability analysis), Hep3B [4]: 61.38 | The results of antibiotic drug inhibiting cancer cell lines (cell viability analysis), SAS [5]: 36.08 | The results of antibiotic drug inhibiting cancer cell lines (cell viability analysis), TOV-21G (TOV-21G): 29.79 | The results of antibiotic drug inhibiting cancer cell lines (cell viability analysis), MKN-45 [6]: 62.34 | The results of antibiotic drug inhibiting cancer cell lines (cell viability analysis), U2OS (U-2OS): 50.07 | The results of antibiotic drug inhibiting cancer cell lines (cell viability analysis), NIH-OVCAR-3 (NIH: OVCAR-3): 52.49 | The results of antibiotic drug inhibiting cancer cell lines (cell viability analysis), A549 [7]: 24.2 | The results of antibiotic drug inhibiting cancer cell lines (cell viability analysis), HeLa [8]: 29.9 | The results of antibiotic drug inhibiting cancer cell lines (cell viability analysis), TSGH-8301 [9]: 46.61 | The results of antibiotic drug inhibiting cancer cell lines (cell viability analysis), AsPC-1 (AsPC-1): 35.28 | The results of antibiotic drug inhibiting cancer cell lines (cell viability analysis), H1650 [10]: 41.75 | The results of antibiotic drug inhibiting cancer cell lines (cell viability analysis), 786-O [11]: 21.55 | The results of antibiotic drug inhibiting cancer cell lines (cell viability analysis), LoVo [12]: 50.79 | The results of antibiotic drug inhibiting cancer cell lines (cell viability analysis), PC-3 [13]: 37.99 | The results of antibiotic drug inhibiting cancer cell lines (cell viability analysis), BCC [14]: 31.25 | The results of antibiotic drug inhibiting cancer cell lines (cell viability analysis), C-33A [15]: 42.62 | The results of antibiotic drug inhibiting cancer cell lines (cell viability analysis), MDA-MB231 [16]: 44.52 | The results of antibiotic drug inhibiting cancer cell lines (cell viability analysis), AGS [17]: 29.46 | The results of antibiotic drug inhibiting cancer cell lines (cell viability analysis), HepG2 [18]: 62.7

COC(=O)Nc1nc2ccc([S+]([O-])c3ccccc3)cc2[nH]1 (stereo not drawn) [Oxfendazole]
viability at 10 µM (BxPC-3; Homo sapiens, 72 h, read-out: The results of antibiotic drug inhibiting cancer cell lines (cell viability analysis), BxPC-3): 55% | viability at 10 µM ([1]; Homo sapiens, A-375, 72 h, read-out: The results of antibiotic drug inhibiting cancer cell lines (cell viability analysis), A375): 59.7% | viability at 10 µM ([2]; Homo sapiens, MCF7, 72 h, read-out: The results of antibiotic drug inhibiting cancer cell lines (cell viability analysis), MCF-7): 64.6% | viability [3]: 67.4% | viability at 10 µM (T24; Homo sapiens, T-24, 72 h, read-out: The results of antibiotic drug inhibiting cancer cell lines (cell viability analysis), T24): 70.2% | viability at 10 µM ([4]; Homo sapiens, 72 h, read-out: The results of antibiotic drug inhibiting cancer cell lines (cell viability analysis), Hep3B): 107% | viability at 10 µM ([5]; Homo sapiens, 72 h, read-out: The results of antibiotic drug inhibiting cancer cell lines (cell viability analysis), SAS): 72.3% | viability at 10 µM (TOV-21G; Homo sapiens, TOV21G, 72 h, read-out: The results of antibiotic drug inhibiting cancer cell lines (cell viability analysis), TOV-21G): 65.1% | viability at 10 µM ([6]; Homo sapiens, MKN-45, 72 h, read-out: The results of antibiotic drug inhibiting cancer cell lines (cell viability analysis), MKN-45): 79.9% | viability at 10 µM (U-2OS; Homo sapiens, 72 h, read-out: The results of antibiotic drug inhibiting cancer cell lines (cell viability analysis), U2OS): 83.4% | viability at 10 µM (NIH: OVCAR-3; Homo sapiens, 72 h, read-out: The results of antibiotic drug inhibiting cancer cell lines (cell viability analysis), NIH-OVCAR-3): 62.2% | viability at 10 µM ([7]; Homo sapiens, A549, 72 h, read-out: The results of antibiotic drug inhibiting cancer cell lines (cell viability analysis), A549): 64.7% | viability at 10 µM ([8]; Homo sapiens, 72 h, read-out: The results of antibiotic drug inhibiting cancer cell lines (cell viability analysis), HeLa): 37% | viability at 10 µM ([9]; Homo sapiens, 72 h, read-out: The results of antibiotic drug inhibiting cancer cell lines (cell viability analysis), TSGH-8301): 67.6% | viability at 10 µM (AsPC-1; Homo sapiens, ASPC1, 72 h, read-out: The results of antibiotic drug inhibiting cancer cell lines (cell viability analysis), AsPC-1): 50.9% | viability at 10 µM ([10]; Homo sapiens, NCI-H1650, 72 h, read-out: The results of antibiotic drug inhibiting cancer cell lines (cell viability analysis), H1650): 64% | viability at 10 µM ([11]; Homo sapiens, 786-0, 72 h, read-out: The results of antibiotic drug inhibiting cancer cell lines (cell viability analysis), 786-O): 72.3% | viability at 10 µM ([12]; Homo sapiens, 72 h, read-out: The results of antibiotic drug inhibiting cancer cell lines (cell viability analysis), LoVo): 73.7% | viability at 10 µM ([13]; Homo sapiens, 72 h, read-out: The results of antibiotic drug inhibiting cancer cell lines (cell viability analysis), PC-3): 72.7% | viability at 10 µM ([14]; Homo sapiens, 72 h, read-out: The results of antibiotic drug inhibiting cancer cell lines (cell viability analysis), BCC): 55.3% | viability at 10 µM ([15]; Homo sapiens, 72 h, read-out: The results of antibiotic drug inhibiting cancer cell lines (cell viability analysis), C-33A): 86.4% | viability at 10 µM ([16]; Homo sapiens, MDA-MB-231, 72 h, read-out: The results of antibiotic drug inhibiting cancer cell lines (cell viability analysis), MDA-MB231): 73.9% | viability at 10 µM ([17]; Homo sapiens, 72 h, read-out: The results of antibiotic drug inhibiting cancer cell lines (cell viability analysis), AGS): 51.4% | viability at 10 µM ([18]; Homo sapiens, HepG2, 72 h, read-out: The results of antibiotic drug inhibiting cancer cell lines (cell viability analysis), HepG2): 99.4%

CC[C@H](C)[C@H]1O[C@]2(CC[C@@H]1C)C[C@@H]1C[C@@H](C/C=C(\C)[C@@H](O[C@H]3C[C@H](OC)[C@@H](O[C@H]4C[C@H](OC)[C@@H](O)[C@H](C)O4)[C@H](C)O3)[C@@H](C)/C=C/C=C3\CO[C@@H]4[C@H](O)C(C)=C[C@@H](C(=O)O1)[C@]34O)O2 [Ivermectin]
The results of antibiotic drug inhibiting cancer cell lines (cell viability analysis), BxPC-3 (BxPC-3): 65.76 | The results of antibiotic drug inhibiting cancer cell lines (cell viability analysis), A375 [1]: 44.36 | The results of antibiotic drug inhibiting cancer cell lines (cell viability analysis), MCF-7 [2]: 48.13 | viability [3]: 62.7% | The results of antibiotic drug inhibiting cancer cell lines (cell viability analysis), T24 (T24): 101.7 | The results of antibiotic drug inhibiting cancer cell lines (cell viability analysis), Hep3B [4]: 63.22 | The results of antibiotic drug inhibiting cancer cell lines (cell viability analysis), SAS [5]: 41.52 | The results of antibiotic drug inhibiting cancer cell lines (cell viability analysis), TOV-21G (TOV-21G): 42.41 | The results of antibiotic drug inhibiting cancer cell lines (cell viability analysis), MKN-45 [6]: 102.1 | The results of antibiotic drug inhibiting cancer cell lines (cell viability analysis), U2OS (U-2OS): 50.69 | The results of antibiotic drug inhibiting cancer cell lines (cell viability analysis), NIH-OVCAR-3 (NIH: OVCAR-3): 61.85 | The results of antibiotic drug inhibiting cancer cell lines (cell viability analysis), A549 [7]: 33.35 | The results of antibiotic drug inhibiting cancer cell lines (cell viability analysis), HeLa [8]: 58.86 | The results of antibiotic drug inhibiting cancer cell lines (cell viability analysis), TSGH-8301 [9]: 63.74 | The results of antibiotic drug inhibiting cancer cell lines (cell viability analysis), AsPC-1 (AsPC-1): 41.75 | The results of antibiotic drug inhibiting cancer cell lines (cell viability analysis), H1650 [10]: 50.2 | The results of antibiotic drug inhibiting cancer cell lines (cell viability analysis), 786-O [11]: 55.69 | The results of antibiotic drug inhibiting cancer cell lines (cell viability analysis), LoVo [12]: 53.26 | The results of antibiotic drug inhibiting cancer cell lines (cell viability analysis), PC-3 [13]: 27.87 | The results of antibiotic drug inhibiting cancer cell lines (cell viability analysis), BCC [14]: 33.64 | The results of antibiotic drug inhibiting cancer cell lines (cell viability analysis), C-33A [15]: 85.05 | The results of antibiotic drug inhibiting cancer cell lines (cell viability analysis), MDA-MB231 [16]: 83.03 | The results of antibiotic drug inhibiting cancer cell lines (cell viability analysis), AGS [17]: 79.82 | The results of antibiotic drug inhibiting cancer cell lines (cell viability analysis), HepG2 [18]: 65.3

— US10105357B2, “Indication of antibiotic drugs for preparation of cancer inhibition pharmaceutical composition” (LAUNX BIOMEDICAL CO., LTD., priority 2014, dated 2018)
